Test system: primary cultured cells of myotubes derived from the DMRV model mice
Assay: Amount of NeuAc by HPLC in myotubes from DMRV model mice
Type: cell-based
Settings: 100 or 500 μm Ac5GlcNAcol together with 10 mM ManNAc, three days
Procedure: The skeletal muscle tissues collected from the DMRV human patients or the model mice were lightly washed with PBS or Hank's balanced saline and were treated with 0.25% trypsin for 5 minutes. The tissues were finely cut into several millimeters with ophthalmic scissors, were digested with 0.4% collagenase II/0.25% trypsin at 37° C. for 30 minutes, and were left still to collect supernatant. The precipitate was again treated with the enzyme liquid. After being left still, the precipitate was well suspended in a DMEM-Ham's F-12 culture medium. The tissue suspension was passed through a nylon mesh to remove the tissues. The washings and the supernatant were centrifuged to collect cells. […]
In the case that the sample was cultured cells, the cells were washed with PBS three times, and 400 p. […] The fluorescent derivative thus prepared was analyzed with HPLC (JASCO Corp.) using 0.05 to 5 nmol/μl Neu5Ac and Neu5Gc standards. The amount of protein from the tissue was measured with a Bio-Rad Protein Assay kit (Bio-Rad Laboratories).
ManNAc or Ac5GlcNAcol was added to the culture media of primary cultured cells of myotubes derived from the DMRV model mice such that the final concentration of ManNAc was 10 mM and the final concentration of Ac5GlcNAcol was […]. […] The amount of NeuAc in the cultured cells was measured by the HPLC method described above (N=3).

**Q.** CC(=O)N[C@@H](COC(C)=O)[C@@H](OC(C)=O)[C@H](OC(C)=O)[C@@H](COC(C)=O)OC(C)=O [Ac5GlcNAcol, Penta-O-acetyl N-acetylglucosaminitol] was tested. Which “amount of NeuAc in the myotubes” value did it give?
**A.** Its value is “further increased the amount of NeuAc”.

Source: patent publication US20120264928A1, “THERAPEUTIC PHARMACEUTICAL AGENT FOR DISEASES ASSOCIATED WITH DECREASE IN FUNCTION OF GNE PROTEIN, FOOD COMPOSITION, AND FOOD ADDITIVE” (JAPAN HEALTH SCIENCES FOUNDATION, priority 2009, published 2012)
